Results published in patent publication US8742141B2, “Inhibition and treatment of prostate cancer metastasis” (Northwestern University, priority 2008, dated 2014).
“Also recorded” adds a separate entry of the source.

Assays:
[1] = test system: PC3-M or PC3 cells; experiment: Cell invasion assay, compounds of Example 7; type: cell-based, human; details: 10 μM of compound
Protocol: (§1) Assays were conducted using methods as described in Craft et al. (2008, Mol. Pharmocol., 73(1):235-242; herein incorporated by reference in its entirety).
(§2) The anti-metastatic activity of the compounds of Example 7 was tested using the procedure of Example 2. Specifically, PC3-M or PC3 cells were treated with 10 μM of compound (for invasion, FIG. 9) or a range of concentrations (for growth inhibition, FIG. 10). For invasion, values are the mean±SD number of invading cells, as a percent of untreated controls, from N=3 separate assays run at different times (each assay was in replicates of N=4). Cell viability was determined by MTT assay as recited in Kyle et al., Mol. Pharmacol, 51(2):193-200 (1997); herein incorporated in its entirety. Values are the mean±SD of N=2 separate assays run at different times (N=3 for each assay), and are the percent of untreated controls.

[2] = test system: PC3-M cells; experiment: Cell invasion assay, compounds 21-48; type: cell-based, human; details: 10 μM of compound
Protocol: as §1
as §2, with “of” for “of the”, “21-26” for “of Example 7”, “PC3-M” for “PC3-M or PC3”, “11)” for “9)”, “12).” for “10).”, “incorporated by reference” for “incorporated”
as §2, with “of” for “of the”, “31-38” for “of Example 7”, “PC3-M” for “PC3-M or PC3”, “13)” for “9)”, “14).” for “10).”, “incorporated by reference” for “incorporated”
as §2, with “of” for “of the”, “41-48” for “of Example 7”, “PC3-M” for “PC3-M or PC3”, “15)” for “9)”, “16).” for “10).”, “incorporated by reference” for “incorporated”

[3] = test system: PC3-M human prostate cancer cells; experiment: 3-day growth inhibition MTT assay; type: cell-based; details: range of concentrations
Protocol: PC3-M human prostate cancer cells were treated with different concentrations of the indicated compound, and then MTT reduction as an indicator of cell viability was measured according to the method of Example 9.
The anti-metastatic activity of compounds 21-26 was tested using the procedure of Example 2. Specifically, PC3-M cells were treated with 10 μM of compound (for invasion, FIG. 11) or a range of concentrations (for growth inhibition, FIG. 12). For invasion, values are the mean±SD number of invading cells, as a percent of untreated controls, from N=3 separate assays run at different times (each assay was in replicates of N=4). Cell viability was determined by MTT assay as recited in Kyle et al., Mol. Pharmacol, 51(2):193-200 (1997); herein incorporated by reference in its entirety. […]
The anti-metastatic activity of compounds 31-38 was tested using the procedure of Example 2. […] Cell viability was determined by MTT assay as recited in Kyle et al., Mol. Pharmacol, 51(2):193-200 (1997); herein incorporated by reference in its entirety. […]
The anti-metastatic activity of compounds 41-48 was tested using the procedure of Example 2. […] Cell viability was determined by MTT assay as recited in Kyle et al., Mol. Pharmacol, 51(2):193-200 (1997); herein incorporated by reference in its entirety. […]

[4] = test system: ER promoter-luciferase reporter vector construct; experiment: ER promoter-luciferase reporter assay in MCF-7 cells; type: cell-based, human; details: 10 μM
Protocol: (§3) The genes were: TFF1 (trefoil factor 1; also known as pS2), PGR (progesterone receptor), and CPSD (cathepsin D). Gene expression was measured by isolating RNA, and performing real time quantitative reverse transcription/polymerase chain reaction (qRT/PCR), using exon spanning primers (purchased from Applied Biosystems). The expression of GAPDH was also measured, and used to normalize the expression of ER responsive genes. Data below are the mean±SD of a single experiment, performed in duplicate. […] Additionally, the ability of compound 46 to activate an ER promoter-luciferase reporter vector construct after transient transfection of the human ER positive breast cancer cell line, MCF-7, was evaluated (FIG. 31). […] “No associated control cells” were transfected with an identical vector construct that lacked the estrogen response element, i.e., noERE.

[5] = test system: PC3-M, PC3, 1542CPTX, 1532CPTX, 1532NPTX, and 1542NPTX cells; experiment: Cell invasion assay, invasion time extended to 16 hours; type: cell-based, human; details: invasion assay time 16 hours
Protocol: as §1
Expanded studies were performed on compound 46. Cell invasion assays conducted using the procedure of Example 2 utilized control, genistein-treated, and compound 46-treated PC3-M, PC3, 1542CPTX, 1532CPTX, 1532NPTX, and 1542NPTX cells (FIG. 17, FIG. 28). This allowed assay conditions to be adjusted so as to optimize assessment of differences between these three treatment conditions. In particular, the invasion assay time was extended from 14 to 16 hours.

[6] = test system: Estrogen receptor (ER) positive human MCF-7 breast cancer cells; experiment: Expression of estrogen responsive genes (TFF1, PGR, CPSD) in MCF-7 cells; type: cell-based; details: 0.1-50 μM, 24 hours, hormone-free conditions
Protocol: as §3

[7] = Short-term animal toxicity study, oral gavage; type: in vivo; details: 0.15, 1.5, 15, or 150 mg/kg body weight/day, 5 days
Protocol: Six week old athymic male mice were dosed by oral gavage with 0.15, 1.5, 15, or 150 mg KBU2046/kg body weight/day, or vehicle control, daily for 5 days. There were 3 mice per dose level.

[8] = Stability after radiation and autoclaving; type: physicochemical
Protocol: Successful scale-up of synthesis of compound 46 was conducted according to the methods of Examples 7, 11, and the Detailed Description, yielding 10 g of material that is >98% pure (by HPLC).

[9] = test system: PC3, PC3-M, 1532CPTX, 1542CPTX, 1532NPTX, and 1542NPTX; experiment: Growth inhibition MTT assay in different cell lines; type: cell-based, human; details: range of concentrations
Protocol: Growth inhibition assays were performed with different cell lines using the procedure of Example 2. Specifically, cell lines (PC3, PC3-M, 1532CPTX, 1542CPTX, 1532NPTX, and 1542NPTX) were treated with a range of concentrations of compound 46 (FIG. 18, FIG. 29). Cell viability was determined by MTT assay as recited in Kyle et al., Mol. Pharmacol, 51(2):193-200 (1997); herein incorporated by reference in its entirety. Data are the mean±SEM of a single experiment, performed in triplicate.

With `O=c1oc2cc(O)cc(O)c2cc1-c1ccc(O)cc1` [Compound 17] as the compound, how does the “inhibition of cell invasion (anti-metastatic activity)” value (shortened to “inhibition of cell invasion”) [1] read?
The value was “did not show any significant inhibition of cell invasion”.

With `CC(=O)Oc1ccc(-c2cc3c(OC(C)=O)cc(OC(C)=O)cc3oc2=O)cc1` [Compound 24] as the compound, how does the anti-invasion efficacy [2] read?
The anti-invasion efficacy was “loss of activity”.

For `O=c1c(-c2cccc(Cl)c2)coc2ccccc12` [Compound 38, 3′-chloroisoflavone], which anti-invasion efficacy [2] is on record?
Its anti-invasion efficacy is “anti-invasive”.

And the “cell growth inhibition (MTT)” value [3]?
Its value is “growth inhibitory effects”.

Which anti-invasion efficacy [2] does the source give for `COc1ccc(-c2cc3c(OC)cc(OC)cc3oc2=O)cc1` [Compound 23] here?
The anti-invasion efficacy was “loss of activity”.

Which “inhibition of cell invasion” value [1] does the source give for `O=c1c(-c2ccc(O)cc2)coc2cc(O)cc(O)c12` [Compound 8] here?
Its value is “did not show any significant inhibition of cell invasion”.

With `O=C1c2c(O)cc(O)cc2OCC1c1ccc(O)cc1` (centres unmarked) [Compound 22, 5,7,4′-trihydroxyisoflavanone] as the compound, how does the anti-invasion efficacy [2] read?
The anti-invasion efficacy was “retain anti-invasion efficacy”.

What about the “cell growth inhibition (MTT)” value [3] of the same compound?
The value was “little-to-no effect upon cell growth inhibition”.

Which “inhibition of cell invasion” value [1] does the source give for `O=c1c(-c2ccccc2)coc2ccccc12` [Compound 1] here?
Its value is “did not show any significant inhibition of cell invasion”.

With `O=C1c2ccccc2OCC1c1ccc(F)cc1` (centres unmarked) [Compound 46, 4′-fluoroisoflavanone] as the compound, how does the luciferase activity [4] read?
Its luciferase activity is “no effect”.

And the “anti-invasion efficacy compared to genistein” value [5]?
Its value is “greater efficacy than genistein; also recorded: greater anti-invasion efficacy compared to genistein”.

What about the “estrogenic activity (expression of estrogen responsive genes)” value [6] of the same compound?
The value was “no estrogenic activity”.

And the toxicity [7]?
The toxicity was “no evidence of toxicity”.

And the compound stability ([8]; after exposure to 40 kGy of radiation)?
The compound stability was “stability was documented”.

What about the compound stability ([8]; after exposure to high temperatures and pressures (autoclaving)) of the same compound?
The compound stability was “stability was documented”.

What about the “toxicity in growth inhibition assay (MTT cell viability)” value [9] of the same compound?
The value was “less toxic than genistein, and in fact shows no toxicity; also recorded: no cell toxicity”.

With `O=c1oc2cc(O)cc(O)c2cc1-c1ccc(O)cc1` [Compound 25] as the compound, how does the anti-invasion efficacy [2] read?
Its anti-invasion efficacy is “loss of activity”.
